Test results published in patent publication US20070275923A1, “CATIONIC PEPTIDES FOR siRNA [sequence] [sequence]” (NASTECH PHARMACEUTICAL COMPANY INC., priority 2006, published 2007).
Non-standard residues stand in square brackets, D forms with d. Residues, ends and D or L forms follow the SMILES beside them. *: point of attachment. Propanoyl(3-maleimido) = O=C1C=CC(=O)N1CCC(=O)*; Mal = not defined here

Experiments:
[1] = tested on: Mouse tail fibroblast (MTF) cells; test: siRNA cell-uptake and MFI measured by FACS after peptide-mediated transfection of labeled siRNA; assay type: cell-based; conditions: for intracellular delivery of siRNA (verbal conclusion from cell-uptake and cell viability): conclusion drawn from Table 3; for % Cell-Uptake / MFI: 200 nM labeled siRNA; for % Cell-Uptake: % of total cells with intracellular labeled siRNA; for MFI: relative value, higher = more labeled siRNA entered the cell
Experimental: SiRNA cell uptake was measured by FACS.
For the instant example, cell-uptake, mean fluorescent intensity (MFI) and cell viability was measured for each peptide. siRNA cell-uptake was measured by the presence of intracellular labeled siRNA. The cell-uptake assay determined the percentage of cells that contain the labeled siRNA. Mean Fluorescence Intensity (MFI) was used to determine the relative mean quantity of labeled siRNA that entered the cells.
A non-transfection, siRNA alone, control was also performed.
Within Table 3, “ND” means no data.

[2] = in vitro; conditions: C57BL/6J, mouse, mouse tail fibroblast (MTF) cells
Experimental: (§1) Mouse tail fibroblast (MTF) cells were derived from the tails of C57BL/6J mice. Tails were removed, immersed in 70% ethanol and then cut into small sections with a razor blade. The sections were washed three times with PBS and then incubated in a shaker at 37° C. with 0.5 mg/mL collagenase, 100 units/mL penicillin and 100 μg/mL streptomycin to disrupt tissue. Tail sections were then cultured in complete media (Dulbecco's Modified […] Medium with 20% FBS, 1 mM sodium pyruvate, nonessential amino acids and 100 units/mL penicillin and 100 μg/mL streptomycin) until cells were established. Cells were cultured at 37° C., 5% CO2 in complete media as outlined above.
(§2) Cells were be plated per well in a microtiter plate the day before transfection in complete media. The siRNA was be labeled, for example with a FAM, Alexa488, Alexa647 or Cy-5 conjugate. The cationic polymer peptide and siRNA were mixed in the microtiter plate complex with cells previously with OptiMEM. 7-AAD was added to each transfection to measure cell viability. Cells were transfected for three hours at 37° C., 5% CO2. The transfection mixture was removed and the cells were washed with TE buffer for about 10 minutes at 37° C., 5% CO2. Transfected cells were transferred to a V bottom plate and centrifuged. The TE buffer was removed and the transfected cells were resuspended in fluorescence activated cell sorting (FACS) buffer.
(§3) A non-transfection, siRNA alone, control was also performed. The peptide PN183 served herein as a positive cell-uptake control.
(§4) Cell-uptake is expressed as a percentage of the total cells with intracellular labeled siRNA. Cell Viability is also expressed as a percentage where 100% represents 100% viability. The MFI value is a relative value with a higher MFI value indicating a greater amount of labeled siRNA entered the cell. Within Table 3, “ND” means no data.

[3] = tested on: Mouse tail fibroblast (MTF) cells; test: in vitro; conditions: 200 nM siRNA, 100% represents 100% viability
Experimental: as §1, §2, §3, §4

Molecule | intracellular delivery of siRNA (verbal conclusion from cell-uptake and cell viability) [1] | % Cell-Uptake ([1]; peptide concentration 1 μM) [%] | MFI ([1]; peptide concentration 1 μM) | % Cell-Uptake ([1]; peptide concentration 10 μM) [%] | MFI ([1]; peptide concentration 10 μM) | % Cell-Uptake ([1]; peptide concentration 100 μM) [%] | MFI ([1]; peptide concentration 100 μM) | viability at 3 h, 1 µM [2] [%] | viability at 3 h, 10 µM [2] [%] | viability at 3 h, 100 µM [2] [%] | % Cell Viability ([3]; peptide concentration 1 μM) [%] | % Cell Viability ([3]; peptide concentration 10 μM) [%] | % Cell Viability ([3]; peptide concentration 100 μM) [%]
N=C(N)NCCC[C@@H](N)C(=O)N[C@@H](CCCNC(=N)N)C(=O)N[C@H](CCCNC(=N)N)C(=O)N[C@@H](CCCNC(=N)N)C(=O)N[C@H](CCCNC(=N)N)C(=O)N[C@@H](CCCNC(=N)N)C(=O)N[C@H](CCCNC(=N)N)C(=O)N[C@@H](CCCNC(=N)N)C(=O)N[C@H](CCCNC(=N)N)C(=O)N[C@@H](CCCNC(=N)N)C(=O)N[C@H](CCCNC(=N)N)C(=O)N[C@@H](CCCNC(=N)N)C(=O)N[C@H](CCCNC(=N)N)C(=O)N[C@@H](CCCNC(=N)N)C(=O)N[C@H](CCCNC(=N)N)C(=O)N[C@@H](CCCNC(=N)N)C(=O)N[C@H](CCCNC(=N)N)C(=O)N[C@@H](CCCNC(=N)N)C(=O)N[C@H](CCCNC(=N)N)C(=O)N[C@@H](CCCNC(=N)N)C(N)=O [PN912, NH2-(Xaa-Arg)10-amide] (H-[dR]R[dR]R[dR]R[dR]R[dR]R[dR]R[dR]R[dR]R[dR]R[dR]R-NH2) | effective intracellular delivery of siRNA without negatively impacting cell viability | 61.2 | 4.32 | 73.3 | 4.72 | 86.2 | 5.41 | 96.9 | 96.1 | 90 | – | – | –
CC[C@H](C)[C@H](NC(=O)[C@H](C)NC(=O)CNC(=O)[C@H](Cc1ccccc1)NC(=O)[C@@H](NC(=O)[C@H](CCC(=O)O)NC(=O)[C@H](CC(N)=O)NC(=O)CNC(=O)[C@H](Cc1c[nH]c2ccccc12)NC(=O)[C@H](CCC(=O)O)NC(=O)CNC(=O)[C@H](CCSC)NC(=O)[C@@H](NC(=O)[C@H](CC(=O)O)NC(=O)[C@@H]1CCCN1C(=O)[C@H](CCC(N)=O)NC(=O)[C@H](CO)NC(=O)[C@H](CCCCN)NC(=O)[C@H](CCCCN)NC(=O)[C@H](CCCCN)NC(=O)[C@H](CCCCN)NC(=O)[C@H](CCCCN)NC(=O)[C@H](CCCCN)NC(=O)[C@H](CCCCN)NC(=O)[C@H](CCCCN)NC(=O)CCN1C(=O)C=CC1=O)[C@@H](C)CC)[C@@H](C)CC)C(=O)N[C@@H](C)C(=O)NCC(=O)N[C@@H](Cc1ccccc1)C(=O)N[C@@H](CC(C)C)C(=O)NCC(N)=O [PN947] ({Propanoyl(3-maleimido)}-KKKKKKKKSQPDIMGEWGNEIFGAIAGFLG-NH2; N-terminus assumed) | – | 2.8 | 1.23 | 12.3 | 1.44 | 49.5 | 4.6 | 98.7 | 97.9 | 99.3 | – | – | –
PEG (2 KDa)-Mal-(Lys)10-amide ({PEG 2 kDa-Mal}-KKKKKKKKKK-NH2; reading uncertain; also: printed as PEG (2 KDa)-Mal-(Lys)10-amide) [PN933] | – | 0.3 | – | 0.5 | – | 0.2 | – | – | – | – | 97.7 | 98 | 98
PEG (2 KDa)-Mal-(Lys)15-amide ({PEG 2 kDa-Mal}-KKKKKKKKKKKKKKK-NH2; reading uncertain; also: printed as PEG (2 KDa)-Mal-(Lys)15-amide) [PN930] | – | 0.2 | – | 1.5 | – | 0.8 | – | – | – | – | 97.9 | 97.2 | 97.8
PEG (2 KDa)-Mal-(Lys)20-amide ({PEG 2 kDa-Mal}-KKKKKKKKKKKKKKKKKKKK-NH2; reading uncertain) [PN926] | – | 0.9 | – | 1.4 | – | 1.2 | – | – | – | – | 97.9 | 98.3 | 98.3
PEG (2 KDa)-Mal-(Lys)25-amide [PN925] | – | 5.2 | – | 2.9 | – | 2.2 | – | – | – | – | 96.6 | 97.8 | 95.8
PEG (2 KDa)-Mal-(Lys-His)10-amide ({PEG 2 kDa-Mal}-KHKHKHKHKHKHKHKHKHKH-NH2; reading uncertain) [PN939] | effective intracellular delivery of siRNA without negatively impacting cell viability | 66 | 3.3 | 97 | 35.1 | 97.3 | 3.33 | – | – | – | 98.6 | 99.7 | 99.1
PEG (2 KDa)-Mal-(Lys-His)15-amide ({PEG 2 kDa-Mal}-KHKHKHKHKHKHKHKHKHKHKHKHKHKHKH-NH2; reading uncertain) [PN936] | effective intracellular delivery of siRNA without negatively impacting cell viability | 37.7 | 2.66 | 55.3 | 5.86 | 25.9 | – | – | – | – | 97.5 | 98.1 | 28.7
PEG (10 KDa)-Mal-(Lys)10-amide ({PEG 10 kDa-Mal}-KKKKKKKKKK-NH2; reading uncertain; also: printed as PEG (10 KDa)-Mal-(Lys)10-amide) [PN934] | – | 0.2 | – | 1.1 | – | 0.3 | – | – | – | – | 98.3 | 96.2 | 97.4
PEG (10 KDa)-Mal-(Lys)15-amide ({PEG 10 kDa-Mal}-KKKKKKKKKKKKKKK-NH2; reading uncertain; also: printed as PEG (10 KDa)-Mal-(Lys)15-amide) [PN931] | – | 0.6 | – | 0.7 | – | 0.5 | – | – | – | – | 97 | 97.7 | 98.4
PEG (10 KDa)-Mal-(Lys)20-amide ({PEG 10 kDa-Mal}-KKKKKKKKKKKKKKKKKKKK-NH2; reading uncertain) [PN928] | – | 3.9 | – | 2.3 | – | 3.2 | – | – | – | – | 97.3 | 98 | 98.2
PEG (10 KDa)-Mal-(Lys)25-amide [PN927] | – | 1.6 | – | 0.8 | – | 0.7 | – | – | – | – | 95.6 | 97 | 97.3
PEG (10 KDa)-Mal-(Lys-His)10-amide ({PEG 10 kDa-Mal}-KHKHKHKHKHKHKHKHKHKH-NH2; reading uncertain) [PN940] | effective intracellular delivery of siRNA without negatively impacting cell viability | 69.9 | 4.81 | 70.6 | 2.54 | – | – | – | – | – | 99.1 | 98.4 | –
PEG (10 KDa)-Mal-(Lys-His)15-amide ({PEG 10 kDa-Mal}-KHKHKHKHKHKHKHKHKHKHKHKHKHKHKH-NH2; reading uncertain) [PN937] | effective intracellular delivery of siRNA without negatively impacting cell viability | 54.7 | 3.18 | 92.6 | 6.41 | – | – | – | – | – | 99 | 99.4 | –
PEG (10 KDa)-Mal-Trp-(Lys)30-amide (WKKKKKKKKKKKKKKKKKKKKKKKKKKKKKK; PEG 10 kDa maleimide; C-terminal amide) [PN986] | – | 0.6 | – | 0.8 | – | 2.5 | – | – | – | – | 97.4 | 97.2 | 93.6
